What was measured:
Experiment in all cases: drug sensitivity score (DSS3, normalised partial AUC of % inhibition dose-response) (DSS (score)); higher = more sensitive (stronger inhibition of viability); extreme values may be limits of the assay
FMOC03 = patient-derived mucinous ovarian cancer cells; conditions: 72 h; library: FO5A; assay format: 2D, 384-well, CellTiter-Glo
Procedure, shortened: (§1)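 On 384-well flat clear-bottom plates carrying compounds at five concentrations across a 10,000-fold range, patient-derived ovarian cancer cells below passage 10 were incubated for 72 h at 37 °C with 5% CO2. CellTiter-Glo readout of viability was processed in Breeze. A higher drug sensitivity score, defined as the partial area under the percent-inhibition dose-response curve divided by the log of the upper asymptote, means greater sensitivity.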

FMOC27 = patient-derived low-grade serous ovarian cancer cells; conditions: 72 h; library: FO5A; assay format: 2D, 384-well, CellTiter-Glo
Procedure, shortened: as §1

FMOC04 = patient-derived high-grade serous ovarian cancer cells; conditions: 72 h; library: FO5A; assay format: 2D, 384-well, CellTiter-Glo
Procedure, shortened: as §1

FMOC25_2 = patient-derived low-grade serous ovarian cancer cells; conditions: 72 h; library: FO5A; assay format: 2D, 384-well, CellTiter-Glo
Procedure, shortened: as §1

FMOC09 = patient-derived high-grade serous ovarian cancer cells; conditions: 72 h; library: FO5A; assay format: 2D, 384-well, CellTiter-Glo
Procedure, shortened: as §1

FMOC02_1 = patient-derived low-grade serous ovarian cancer cells; conditions: 72 h; library: FO5A; assay format: 2D, 384-well, CellTiter-Glo
Procedure, shortened: as §1

FMOC22 = patient-derived mucinous ovarian cancer cells; conditions: 72 h; library: FO5A; assay format: 2D, 384-well, CellTiter-Glo
Procedure, shortened: as §1

FMOC28 = patient-derived low-grade serous ovarian cancer cells; conditions: 72 h; library: FO5A; assay format: 2D, 384-well, CellTiter-Glo
Procedure, shortened: as §1

FMOC24 = patient-derived high-grade serous ovarian cancer cells; conditions: 72 h; library: FO5A; assay format: 2D, 384-well, CellTiter-Glo
Procedure, shortened: as §1

FMOC02_3 = patient-derived low-grade serous ovarian cancer cells; conditions: 72 h; library: FO5A; assay format: 2D, 384-well, CellTiter-Glo
Procedure, shortened: as §1

FMOC17 = patient-derived low-grade serous ovarian cancer cells; conditions: 72 h; library: FO5A; assay format: 2D, 384-well, CellTiter-Glo
Procedure, shortened: as §1

FMOC06 = patient-derived mucinous ovarian cancer cells; conditions: 72 h; library: FO5A; assay format: 2D, 384-well, CellTiter-Glo
Procedure, shortened: as §1

FMOC02_2 = patient-derived low-grade serous ovarian cancer cells; conditions: 72 h; library: FO5A; assay format: 2D, 384-well, CellTiter-Glo
Procedure, shortened: as §1

FMOC11 = patient-derived high-grade serous ovarian cancer cells; conditions: 72 h; library: FO5A; assay format: 2D, 384-well, CellTiter-Glo
Procedure, shortened: as §1

FMOC14 = patient-derived high-grade serous ovarian cancer cells; conditions: 72 h; library: FO5A; assay format: 2D, 384-well, CellTiter-Glo
Procedure, shortened: as §1

FMOC25_1 = patient-derived low-grade serous ovarian cancer cells; conditions: 72 h; library: FO4B; assay format: 2D, 384-well, CellTiter-Glo
Procedure, shortened: as §1

Structure (SMILES) | drug sensitivity score (FMOC03) | drug sensitivity score (FMOC27) | drug sensitivity score (FMOC04) | drug sensitivity score (FMOC25_2) | drug sensitivity score (FMOC09) | drug sensitivity score (FMOC02_1) | drug sensitivity score (FMOC22) | drug sensitivity score (FMOC28) | drug sensitivity score (FMOC24) | drug sensitivity score (FMOC02_3) | drug sensitivity score (FMOC17) | drug sensitivity score (FMOC06) | drug sensitivity score (FMOC02_2) | drug sensitivity score (FMOC11) | drug sensitivity score (FMOC14) | drug sensitivity score (FMOC25_1)
CC[C@@H]1[C@H](F)C(=O)N[C@@H]1COc1nccc2cc(C(N)=O)c(OC)cc12 | 0 | 0.5 | 0 | 4 | 0 | 2.6 | 0 | 0 | 0 | 5.2 | 0 | 0 | 0.6 | 0 | 0 | –
CNS(=O)(=O)Nc1nccc(Cc2c(C)c3ccc(Oc4ncccn4)cc3oc2=O)c1F | 0.4 | 0 | 0 | 5.2 | 0.7 | 0 | 0.7 | 4.5 | 0 | 3.7 | 0 | 0.4 | 0.8 | 0 | 0 | –
CONC(=O)c1ccccc1Nc1cc(Nc2cc(C)nn2C(C)C)ncc1Cl | 0 | 0 | 0 | 1.7 | 1.4 | 0 | 0 | 0 | 0.2 | 1 | 0.3 | 0 | 1.6 | 0 | 0 | –
C[C@H]1C[C@@H](n2c(Nc3ccc(OC(F)(F)F)cc3)nc3cc(CCC(=O)O)ccc32)CC(C)(C)C1 | 0 | 0 | 0 | 0 | 0 | 0 | 1.1 | 0 | 4.1 | 0.3 | 0 | 0 | 0 | 0.6 | 0 | –
Cc1c(-c2c(-c3ccc(F)o3)sc3ncnc(O[C@H](Cc4ccccc4OCc4ccnn4CC(F)(F)F)C(=O)O)c23)ccc(OCCN2CCN(C)CC2)c1Cl | 0 | 0 | 0.05 | 0 | 0 | 0 | 0 | 0 | 8 | 2.8 | 0 | 0 | 0 | 0 | 0 | –
Cn1cc(-c2ccc(F)c(C(F)(F)F)c2)nc1C1CCN(c2ncnc3[nH]ncc23)CC1 | 0 | 0.1 | 0 | 5.6 | 0 | 3.1 | 0 | 3.8 | 0 | 5.4 | 0.6 | 0 | 3.9 | 0 | 0 | –
O=C(NCc1ccncc1)C12CC3CC(C1)CC(c1ccc(Cl)cc1)(C3)C2 | 4.5 | 4.1 | 2 | 3.1 | 4.2 | 2.6 | 5.2 | 4.8 | 4.7 | 5.3 | 3.1 | 5.6 | 3.2 | 5.8 | 1.6 | –
O=C1Cc2cc(C(=O)NC3C[C@H]4CC[C@@H](C3)N4S(=O)(=O)CC3CCN(CCCC(F)(F)F)CC3)c(Cl)cc2N1 (stereo not given in full) | 0 | 0 | 0 | 0 | 0 | 0 | 0 | 0.2 | 0 | 0 | 0 | 2.3 | 0 | 0 | 0 | –
COc1cc2c(cc1OCCCN1CCCC1)N=C(N)C21CCC1 [A-366] | 0.7 | 0 | 3.9 | 4.9 | 2.3 | 3.9 | 0 | 0.1 | 7.2 | 0 | 2.3 | 0 | 0.2 | 1.1 | 0.5 | –
C[C@H](Nc1ncnc2[nH]cnc12)c1cc2ccc(F)cc2nc1-c1ccccn1 [AMG319] | 0 | 0 | 0 | 0 | 0 | 0 | 0 | 0 | 0.7 | 0 | 0.1 | 0 | 0.1 | 0 | 0 | –
COCCOc1cnc2ccn([C@H](C)c3nnc4c(F)cc(-c5cnn(C)c5)cn34)c(=O)c2c1 [AMG-337] | 0 | 0 | 0 | 0 | 0 | 0 | 0 | 3.4 | 0 | 0 | 0 | 0 | 0 | 0 | 0 | –
CN(C)CCCOc1ccc(-c2ccc3ncc4c(c3c2)n(C2CCOCC2)c(=O)n4C)cn1 [AZD0156] | 0.5 | 0 | 0.8 | 2.5 | 0.1 | 5.3 | 0.9 | 4.6 | 0 | 3.1 | 2.2 | 0.1 | 3.4 | 0 | 0 | –
COc1cc2ncnc(Nc3cccc(Cl)c3F)c2cc1OC(=O)N1CCN(C)C[C@H]1C [AZD3759] | 4.8 | 2.8 | 0.25 | 4.2 | 2.8 | 6.4 | 0 | 5 | 0 | 5.9 | 7 | 0.2 | 5.4 | 3.3 | 0.5 | –
CC#CC(=O)N1CCC[C@H]1c1nc(-c2ccc(C(=O)Nc3ccccn3)cc2)c2c(N)nccn12 [Acalabrutinib] | 0 | 0 | 0.6 | 0 | 0.8 | 0.3 | 0 | 0.5 | 0 | 0.7 | 2.2 | 2.6 | 0 | 0.2 | 0 | –
COc1cc(C)c(/C=C/C(C)=C/C=C/C(C)=C/C(=O)O)c(C)c1C [Acitretin] | 0 | 0 | 0 | 0 | 0 | 0.2 | 0 | 0.3 | 0 | 3.4 | 0 | 0.1 | 0.7 | 2.8 | 0 | –
O=C(Nc1cc(Oc2cc(F)c(NC(=O)C3(C(=O)Nc4ccc(F)cc4)CC3)cc2F)ccn1)C1CC1 [Altiratinib] | 5 | 5.1 | 1.05 | 9.1 | 1.7 | 4.9 | 4.3 | 3.3 | 8.2 | 5.1 | 3 | 6.9 | 5.2 | 2.4 | 5.1 | –
CNC(=O)c1ccc(N2C(=S)N(c3cnc(C#N)c(C(F)(F)F)c3)C(=O)C23CCC3)cc1F [Apalutamide] | 0 | 0 | 0 | 0 | 0 | 0 | 0 | 3.4 | 0.45 | 0 | 0 | 0 | 0 | 0 | 0 | –
O=C(/C=C\n1cnc(-c2cc(C(F)(F)F)cc(C(F)(F)F)c2)n1)NNc1ccccn1 [Verdinexor] | 8.2 | – | – | 11.9 | 7.6 | – | 8.6 | – | 11.2 | 9.2 | – | 11.2 | 9.4 | – | 6 | 6.2
CC[C@]1(O)C[C@@H]2CN(CCc3c([nH]c4ccccc34)[C@@](C(=O)OC)(c3cc4c(cc3OC)N(C)[C@H]3[C@@](O)(C(=O)OC)[C@H](OC(C)=O)[C@]5(CC)C=CCN6CC[C@]43[C@@H]65)C2)C1 [Vinblastine] | 7.5 | – | – | 15.9 | 8.3 | – | 6.8 | – | 0.45 | 17.2 | – | 2.4 | 3.7 | – | 0 | 10.9
CC[C@]1(O)C[C@H]2CN(CCc3c([nH]c4ccccc34)[C@@](C(=O)OC)(c3cc4c(cc3OC)N(C=O)[C@H]3[C@@](O)(C(=O)OC)[C@H](OC(C)=O)[C@]5(CC)C=CCN6CC[C@]43[C@@H]65)C2)C1 [Vincristine] | 6.2 | – | – | 13 | 12.5 | – | 5.9 | – | 5.05 | 15.4 | – | 3.4 | 4.7 | – | 0.3 | 9.4
CCC1=C[C@@H]2CN(C1)Cc1c([nH]c3ccccc13)[C@@](C(=O)OC)(c1cc3c(cc1OC)N(C)[C@H]1[C@@](O)(C(=O)OC)[C@H](OC(C)=O)[C@]4(CC)C=CCN5CC[C@]31[C@@H]54)C2 [Vinorelbine] | 17.9 | – | – | 17.8 | 17.9 | – | 16.3 | – | 6.6 | 23.1 | – | 17.1 | 14.8 | – | 2.4 | 17.7
CC[C@@H]1C(=O)N(C)c2cnc(Nc3ccc(C(=O)N[C@H]4CC[C@H](N5CCN(CC6CC6)CC5)CC4)cc3OC)nc2N1C(C)C [Volasertib] | 3.5 | – | – | 8.5 | 5.1 | – | 3.9 | – | 2.9 | 7.6 | – | 1.2 | 6.1 | – | 0.4 | 3.2
O=C(CCCCCCC(=O)Nc1ccccc1)NO [Vorinostat] | 5.5 | – | – | 8.5 | 3.1 | – | 4.6 | – | 10.1 | 7.7 | – | 7.4 | 9.8 | – | 6.8 | 5.5
Oc1nc(-c2ccc(C(F)(F)F)cc2)nc2c1CSCC2 [XAV-939] | 1.7 | – | – | 9.9 | 0 | – | 0 | – | 3.55 | 6 | – | 0.5 | 8.5 | – | 2.1 | 6.9
FC(F)c1nc2ccccc2n1-c1nc(N2CCOCC2)nc(N2CCOCC2)n1 [ZSTK474] | 10.6 | – | – | 16.8 | 11.8 | – | 5.6 | – | 4.65 | 18.4 | – | 12.5 | 16.9 | – | 9.8 | 15.6
